In PMC11960675, “3-Deazaguanosine inhibits SARS-CoV-2 viral replication and reduces the risk of COVID-19 pneumonia in hamster” (iScience, 2025):
Where “and” joins values, the source holds several entries; their conditions need not be identical. Identical values can stand only once. Like-named read-outs stand apart in the source and are kept apart here.

Key:
[1] = tested on: SARS-CoV-2; experiment: microbe, parasite or virus in culture; format: cell-based; conditions: MOI 0.001, day 3 post-infection; for EC50: Severe acute respiratory syndrome coronavirus 2, Vero C1008, 72 h, footnote a: CPE assay, SARS-CoV-2-infected Vero E6 cells, read-out: EC50 (anti-SARS-CoV-2 activity, CPE assay); for Anti-SARS-CoV-2 activity by CPE assay (crystal violet staining): Vero E6 cells, 30 μM in Figure 2
[2] = Cytotoxicity by WST-8 assay using uninfected Vero E6 cells; format: cell-based; conditions: African green monkey
[3] = tested on: SARS-CoV-2; experiment: qRT-PCR of viral RNA using SARS-CoV-2-infected Vero E6 cells; format: cell-based; conditions: Severe acute respiratory syndrome coronavirus 2, Vero C1008, footnote b: qRT-PCR of viral RNA, MOI 0.001, non-linear curve fit, read-out: EC50 (95% CI) (anti-SARS-CoV-2 activity, qRT-PCR of viral RNA)
[4] = tested on: SARS-CoV-2; experiment: Syrian hamster model of COVID-19, intraperitoneal treatment; conditions: for Body weight change of infected hamsters / Inflammatory area of lung sections: IP, 2 at 110 mg/kg/day qd, Molnupiravir 220 mg/kg/day bid; for Inflammatory area of lung sections: lung histopathology 5 dpi
[5] = tested on: SARS-CoV-2; experiment: Syrian hamster model of COVID-19, inhalation treatment by nebulizer; conditions: for Inflammatory area of lung sections: lung histopathology 5 dpi, INH 110 mg/kg/day qd
[6] = target: T1, vaccinia capping enzyme (VCE) (Vaccinia virus, UniProt P04298); format: biochemical; conditions: model RNA fragment, 37°C, 2 h, LC-MS
T1 construct: purchased CellScript C-SCCS2250

[7] = target: recombinant SARS-CoV-2 RdRp complex (Severe acute respiratory syndrome coronavirus 2, UniProt P0DTD1); format: biochemical; conditions: 10 μM, 34°C, 2 h
[8] = WST-8 assay, uninfected Vero E6 cells, read-out: CC50

Nc1nccc2c1ncn2[C@@H]1O[C@H](CO)[C@@H](O)[C@H]1O [Compound 1, 3-deazaadenosine]
EC50 [1]: > 30 µM | CC50 [2]: > 200 µM

Nc1cc2c(ncn2[C@@H]2O[C@H](CO)[C@@H](O)[C@H]2O)c(=O)[nH]1 [Compound 2, 3-Deazaguanosine]
Anti-SARS-CoV-2 activity by CPE assay (crystal violet staining) [1]: inhibited viral replication | EC50 [3]: 1.14 µM | CC50 [2]: > 200 µM | Lower infectious viral titer in lungs (fold) ([4]; 2 dpi, IP 110 mg/kg/day qd): > 10^5 fold | Body weight change of infected hamsters [4]: marginal reduction in body weight | Inflammatory area of lung sections [4]: 0.02 ± 0.02% | Lower infectious viral titer in lungs (fold) ([5]; 5 dpi, inhalation, approximately 110 mg/kg/day qd): more than 10^2 fold | Body weight loss associated with infection ([5]; inhalation, approximately 110 mg/kg/day qd): reduction in the body weight loss | Inflammatory area of lung sections [5]: 0.98 (±0.36) % and 0.98 ± 0.36%

Nc1cc2c(ncn2[C@@H]2O[C@H](COP(=O)(O)OP(=O)(O)OP(=O)(O)O)[C@@H](O)[C@H]2O)c(=O)[nH]1 [Compound 2-TP, 6-Amino-1-(β-D-ribofuranosyl)-1H-imidazo[4,5-c]pyridin-4(5H)-one 5′-triphosphate]
5′-capped RNA formed by VCE in the presence of both GTP and the compound [6]: no 5′-capped RNA | 5′-capped RNA formed by VCE with the compound in place of GTP [6]: small amounts of 5′-C^3GpppA-capped RNA (IIIb) and 5′-m7C^3GpppG-capped RNA (IVb) | RNA synthesis by recombinant SARS-CoV-2 RdRp complex (fluorescence intensity) [7]: not inhibited

OC[C@H]1O[C@@H](n2cnc3c(O)nccc32)[C@H](O)[C@@H]1O [Compound 3, 3-deazainosine]
EC50 [1]: > 30 µM | CC50 [2]: > 200 µM

Nc1[nH]c(=O)c2ncn([C@@H]3O[C@H](CO)[C@@H](O)[C@H]3O)c2c1F [Compound 4, 3-fluoro-3-Deazaguanosine]
EC50 [1]: > 30 µM | Anti-SARS-CoV-2 activity by CPE assay (crystal violet staining) [1]: loss of anti-viral activity | CC50 [2]: > 200 µM

Nc1[nH]c(=O)c2ncn([C@@H]3O[C@H](CO)[C@@H](O)[C@H]3O)c2c1Cl [Compound 5, 3-chloro-3-Deazaguanosine]
EC50 [1]: > 30 µM | Anti-SARS-CoV-2 activity by CPE assay (crystal violet staining) [1]: loss of anti-viral activity | CC50 [2]: > 200 µM

Nc1cc2c(ncn2[C@@H]2O[C@H](CO)[C@@H](O)[C@H]2O)c(N)n1 [Compound 6, 4,6-Diamino-1-β-D-ribofuranosyl-1H-imidazo[4,5-c]pyridine]
EC50 [1]: > 30 µM | Anti-SARS-CoV-2 activity by CPE assay (crystal violet staining) [1]: no inhibitory effects | CC50 [2]: > 200 µM

Nc1cc2[nH]cnc2c(=O)[nH]1 [Compound 10, 6-Amino-1H-Imidazo[4,5-c]pyridin-4(5H)-one]
Anti-SARS-CoV-2 activity by CPE assay (crystal violet staining) [1]: had anti-SARS-CoV-2 activity | EC50 [3]: 12.6 µM | CC50 [2, 8]: > 200 µM

Nc1cc2c(ncn2[C@H]2C[C@H](O)[C@@H](CO)O2)c(=O)[nH]1 [Compound 11, 6-Amino-1-(2-deoxy-β-D-ribofuranosyl)-1H-imidazo[4,5-c]pyridin-4(5H)-one]
Anti-SARS-CoV-2 activity by CPE assay (crystal violet staining) [1]: had anti-SARS-CoV-2 activity | EC50 [3]: 5.35 µM | CC50 [2]: > 200 µM

CC(C)C(=O)OC[C@H]1O[C@@H](n2ccc(NO)nc2=O)[C@H](O)[C@@H]1O [Molnupiravir, reference compound]
Body weight change of infected hamsters [4]: marginal reduction in body weight | Inflammatory area of lung sections [4]: 0.24 ± 0.16% | Inflammatory area of lung sections [5]: 4.77 (±3.04) %

O=c1nc(NO)ccn1[C@@H]1O[C@H](CO)[C@@H](O)[C@H]1O [NHC, N^4-hydroxy cytidine, reference compound]
EC50 [3]: 0.27 µM | CC50 [2]: > 200 µM

CCC(CC)COC(=O)[C@H](C)N[P@](=O)(OC[C@H]1O[C@@](C#N)(c2ccc3c(N)ncnn23)[C@H](O)[C@@H]1O)Oc1ccccc1 [Remdesivir, reference compound]
EC50 [3]: 0.47 µM | CC50 [2, 8]: > 200 µM

Nc1nc2c(ncn2[C@H]2CC[C@@H](COP(=O)(O)OP(=O)(O)OP(=O)(O)O)O2)c(=O)[nH]1 [ddGTP, 2′,3′-dideoxy GTP, reference compound]
RNA synthesis by recombinant SARS-CoV-2 RdRp complex (fluorescence intensity) [7]: reduced
